These results are taken from patent US6391871B1 (priority 1996, dated 2002).

“Also recorded” adds a separate entry of the source. Like-named read-outs stand apart in the source and are kept apart here.

One series relates to NMDA receptors. In kind it is cell-based, chick. As for the experimental part: Potency rating=minimum concentration required to provide total protection against neurotoxic effects of NMDA (40 μM) in chick embryo retinal tissue tests
These experiments were performed using segments of chick embryo retina. This is a widely used model for studying the production and prevention of excitotoxic phenomena, since it is a simple and inexpensive preparation, and since chick tissue provides a better model of adult mammalian neurons than embryonic or juvenile mammalian tissue. All of the glutamate receptors that mediate excitotoxic phenomena are present in chick retinas, and are sensitive to excitotoxic stimulation. By contrast, in embryonic or juvenile mammalian tissue, various glutamate receptors are not fully matured and are not responsive in the same ways that occur in adult mammalian tissue.
In these tests, NMDA is introduced into the incubation medium in a concentration ([…]) sufficient to produce a fully developed excitotoxic lesion within 30 min, displaying acute degeneration and necrosis of the majority of neurons in the inner layers of the retina. The control retinas are incubated with NMDA alone, and experimental retinas are incubated with NMDA plus a test compound that is being evaluated for NMDA antagonist properties. […] All agents that prevent NMDA from hyperactivating NMDA receptors and thereby inducing an excitotoxic neurodegenerative reaction in the chick embryo retina are considered appropriate candidate drugs for preventing NMDA receptor hyperactivation and NMDA receptor burnout in the presymptomatic stages of Alzheimer's disease.
The concentration of the test compound required to prevent NMDA from inducing neuronal degeneration in the chick retina tissue is considered a measure of its expected potency for preventing NMDA receptor hyperactivation and NMDA receptor burnout in the presymptomatic stages of Alzheimer's disease.

A further series relates to vacuolated PC/RS neurons. Put plainly: Safener assay: prevention of MK-801-induced vacuole formation in PC/RS neurons. To be noted: for ED50: 4 h; for blocking of MK-801 neurotoxicity / vacuole formation: tested against MK-801. As for the experimental part:
For each test agent, at least 5 dosages of the candidate safener agent were tested, and at least 4 rats were used in each dosage group.
The rats were sacrificed four hours after treatment, for histopathological evaluation. The number of vacuolated PC/RS neurons were counted on each side of the brain, at a rostrocaudal level immediately posterior to where the corpus callosum ceases decussating across the midline (approximately 5.6 mm caudal to bregma).
The result was subtracted from one and multiplied by 100, to calculate a percentage.
The confidence limits, in the right column, were the safener dosages that reduced vacuoles by 25% and 75%.

Another series has as its system sigma receptors. To be noted: cited from earlier work.
For series [1], the system named is pyramidal neurons in layers III and IV of the posterior cingulate and retrosplenial (PC/RS) cortices. Briefly: In vivo assay of toxic side effects of NMDA antagonists (vacuole formation in PC/RS cortex).
Series [2] has as its system NMDA receptors in the hypothalamus. Briefly: NMDA receptor hyperactivation in the hypothalamic-pituitary neuroendocrine regulatory system. To be noted: for damage to the reproductive regulatory (NMDA receptor) system: high dose, rats. As for the experimental part: The explanation for this is that normally, neurons in the hypothalamus that have NMDA receptors on their surface are activated by the excitatory transmitter, glutamate, which causes them to send a message to the pituitary resulting in pituitary release of LH. When NMDA is administered, it enters the hypothalamus and mimics glutamate by acting at the same NMDA receptors that glutamate would activate. This triggers the same sequence of events that glutamate would normally trigger. The action of glutamate at these NMDA receptors represents a physiological mechanism by which glutamate normally regulates the amount of reproductive hormones (e.g., LH) that circulate in the blood. For a detailed review describing this neuroendocrine regulatory system, see Olney and Price 1978.
These excitotoxic molecules (NMDA or glutamate) enter the hypothalamus and hyperactivate NMDA receptors so vigorously and continuously that it destroys the NMDA receptor system, and leaves it permanently unresponsive to subsequent stimulation, either by exogenously administered NMDA, or by endogenous glutamate.
Affected animals develop a neuroendocrine deficiency syndrome, which leads to symptoms such as obesity, sterility, and ongoing degeneration of their reproductive organs.

Series [3] concerns pyramidal neurons in layers III and IV of the posterior cingulate and retrosplenial (PC/RS) cortices. The following applies: rat, in vivo; for neurotoxic (vacuole) reaction in PC/RS cortex, drug by itself: ip.
The subject of a further series is cerebrocortical neurons. The following applies: Olney et al 1989, Corso et al 1994; cited from earlier work.
[4] abbreviates: NMDA 40 μM, chick embryo retinal tissue.
[5] abbreviates: dose reducing mean number of vacuolated PC/RS neurons to 50% of MK-801 (0.5 mg/kg sc) controls, rats.

In the case of `CC(C(O)c1ccc(O)cc1)N1CCC(Cc2ccccc2)CC1` (centres unmarked) [Ifenprodil], the “POTENCY RATING = minimum concentration required to provide total protection against neurotoxic effects of NMDA” value with NMDA receptors was found to be 50 µM. The term ED50 denotes the dose at which the effect has come halfway, by size or by number of responders. With `CN1[C@@H]2CC[C@H]1C[C@@H](OC(c1ccccc1)c1ccccc1)C2` [Benztropine], the ED50 in the series with vacuolated PC/RS neurons (Rattus norvegicus, Neuron, sc) amounted to 1.29 mg/kg. Same read-out and setting: next, `O=C(CCCN1CCC(O)(c2ccc(Cl)cc2)CC1)c1ccc(F)cc1` [Haloperidiol]: 5.1 mg/kg; `CCCC(C)C1(CC)C(=O)NC(=O)NC1=O` (centres unmarked) [Pentobarbital]: 13.1 mg/kg. As to `OC(CCN1CCCC1)(c1ccccc1)C1CCCCC1` (centres unmarked) [Procyclidine], the “POTENCY RATING = minimum concentration required to provide total protection against neurotoxic effects of NMDA” value with NMDA receptors (setting [4]) is 15 µM.

For `CN1[C@@H]2C[C@@H](OC(=O)[C@H](CO)c3ccccc3)C[C@H]1[C@@H]1O[C@@H]12` [Scopolamine], the 50% effect level in the series with vacuolated PC/RS neurons (Rattus norvegicus, Neuron, sc) (ED50) was put at a dose of 0.13 mg/kg.

On to `O=C(O)c1cc(O)c2ccc(Cl)cc2n1` [7-CL-Kynurenic acid, 7-chloro-kynurenic acid], for which the “POTENCY RATING = minimum concentration required to provide total protection against neurotoxic effects of NMDA” value in the series on NMDA receptors worked out at 50 µM.

As to `OC(CCN1CCCCC1)(c1ccccc1)C1CCCCC1` (centres unmarked) [Trihexyphenidyl], in the series on sigma receptors, the “binding at sigma receptors” value was “strong binding affinity not only to muscarinic receptors, but also to sigma receptors”. Besides, it took a dose of 2.14 mg/kg to reach the 50% effect level with vacuolated PC/RS neurons (Rattus norvegicus, Neuron, sc) (ED50).

Take Ibogaine: the “binding at sigma receptors” value with sigma receptors is “strong binding affinity at sigma receptors”. Also, in the series on NMDA receptors, the “NMDA antagonist properties in the chick retina assay” value is “definite NMDA antagonist properties”. The “POTENCY RATING = minimum concentration required to provide total protection against neurotoxic effects of NMDA” value with NMDA receptors (setting [4]) was determined as 15 µM. Take `O=C(O)C1CN(CCCP(=O)(O)O)CCN1` (centres unmarked) [CPP]: the “POTENCY RATING = minimum concentration required to provide total protection against neurotoxic effects of NMDA” value in the series with NMDA receptors (setting [4]) is 10 µM.

In the case of `N[C@H](CCCP(=O)(O)O)C(=O)O` [D-AP5, D-2-amino-5-phosphonopentanoic acid], in the series on NMDA receptors (setting [4]), the “POTENCY RATING = minimum concentration required to provide total protection against neurotoxic effects of NMDA” value is 25 µM. In the series with vacuolated PC/RS neurons (Rattus norvegicus, Neuron, sc), `CN1C(=O)CN=C(c2ccccc2)c2cc(Cl)ccc21` [Diazepam] gave an ED50 of 1 mg/kg. Regarding `CC(C)c1cccc(C(C)C)c1O` [propofol], in the series on vacuolated PC/RS neurons, the “blocking of MK-801 neurotoxicity / vacuole formation” value was “effectively block vacuole formation”. In the case of `C[C@]12N[C@H](Cc3ccccc31)c1ccccc12` [MK-801, (+)-5-methyl-10,11-dihydro-5H-di[a,d]-cyclohepten-5,10-imine], in the series on NMDA receptors, the “POTENCY RATING = minimum concentration required to provide total protection against neurotoxic effects of NMDA” value was […]. In addition, the “neurotoxic reaction induced by MK-801” value in the series on vacuolated PC/RS neurons (MK-801 0.5 mg/kg sc, all treated rats) was “fully developed neurotoxic reaction”. Take `N=C(N)N/N=C/c1c(Cl)cccc1Cl` [Guanabenz]: in the series on vacuolated PC/RS neurons (Rattus norvegicus, Neuron, sc), the 50% effect level (ED50) was put at a dose of 0.21 mg/kg. `Clc1cccc(Cl)c1N=C1NCCN1` [Clonidine] yielded a 50% effective dose (ED50) in the series on vacuolated PC/RS neurons (Rattus norvegicus, Neuron, sc) of 0.044 mg/kg.

Take `COc1cc(CC(C)N)c(OC)cc1Br` (centres unmarked) [DOB]: in the series on vacuolated PC/RS neurons (setting [5]), the ED50 is 0.36 mg/kg, ip.

Consider `CC(Oc1c(Cl)cccc1Cl)C1=NCCN1` (centres unmarked) [Lofexidine], for which, in the series on vacuolated PC/RS neurons (Rattus norvegicus, Neuron, sc), the ED50 came out at 0.38 mg/kg. On to `CCN(CC)C(=O)N[C@H]1C=C2c3cccc4[nH]cc(c34)C[C@H]2N(C)C1` [Lisuride], for which the “blocking of MK-801 neurotoxicity / vacuole formation” value with vacuolated PC/RS neurons was “block MK-801 toxicity”. Consider `N#Cc1cc2[nH]c(=O)c(=O)[nH]c2cc1[N+](=O)[O-]` [CNQX], for which the “POTENCY RATING = minimum concentration required to provide total protection against neurotoxic effects of NMDA” value in the series with NMDA receptors came out at 200 µM.

For `O=[N+]([O-])c1cc2nc(O)c(O)nc2cc1[N+](=O)[O-]` [DNQX], the “POTENCY RATING = minimum concentration required to provide total protection against neurotoxic effects of NMDA” value in the series with NMDA receptors (setting [4]) is 100 µM. Consider `C=CCN1CC[C@]2(C)c3cc(O)ccc3C[C@H]1[C@H]2C` [SKF (+)10,047], for which, in series [1] (adult female rats, ip, sacrificed four hours after treatment), the “neurotoxic (vacuole) reaction in PC/RS cortex, drug by itself” value (“neurotoxic (vacuole) reaction” below) was “neither SKF (+)10,047 by itself, nor eliprodil by itself, caused a vacuole reaction; also recorded: neither SKF (+)10,047 nor ibogaine by itself caused vacuoles”.

In the series on vacuolated PC/RS neurons (Rattus norvegicus, Neuron, sc), `C[C@@H]1CN(CCCn2c3ccccc3c3ccccc32)C[C@H](C)N1` [Rimcazole] had an ED50 of 17.8 mg/kg. As for `COc1ccc2c(c1)[C@]13CCCC[C@@H]1[C@H](C2)N(C)CC3` [Dextromethorphan], in the series with NMDA receptors (setting [4]), the “POTENCY RATING = minimum concentration required to provide total protection against neurotoxic effects of NMDA” value was 25 µM. For `O=C(O)[C@@H]1C[C@H](CP(=O)(O)O)CCN1` [CGS 19755], in the series on NMDA receptors (setting [4]), the “POTENCY RATING = minimum concentration required to provide total protection against neurotoxic effects of NMDA” value came to 5 µM. Take `CN[C@H](CC(=O)O)C(=O)O` [NMDA, n-methyl-D-aspartate]: the “pituitary secretion of reproductive hormones (LH)” value in series [2] (NMDA subcutaneously or intravenously, rodents) is “causing the pituitary gland to secrete into the blood certain reproductive hormones such as luteinizing hormone”. Also, the “damage to the reproductive regulatory (NMDA receptor) system” value in series [2] was “permanently damage and inactivate this reproductive regulatory system”.

As for `Clc1cc(I)cc(Cl)c1NC1=NCCN1` [p-Iodoclonidine], the ED50 in the series with vacuolated PC/RS neurons (setting [5]) is reported as 1.3 mg/kg, ip. In the case of `N[C@@H](CCC(=O)O)C(=O)O` [glutamate], the “damage to the reproductive regulatory (NMDA receptor) system” value in series [2] was “permanently damage and inactivate this reproductive regulatory system”. For the compound `FC(F)(F)C(Cl)Br` (centres unmarked) [halothane], in the series on vacuolated PC/RS neurons, the “blocking of MK-801 neurotoxicity / vacuole formation” value is recorded as “effectively block vacuole formation”. Consider `Cc1cc2c(s1)Nc1ccccc1N=C2N1CCN(C)CC1` [Olanzapine], for which, in the series on vacuolated PC/RS neurons (Rattus norvegicus, Neuron, sc), it took a dose of 0.6 mg/kg to reach the 50% effect level (ED50). With `FC(F)OC(Cl)C(F)(F)F` (centres unmarked) [isoflurane], the “blocking of MK-801 neurotoxicity / vacuole formation” value in the series with vacuolated PC/RS neurons is on record as “effectively block vacuole formation”. In the case of `C=CCC1(C(C)CCC)C(=O)NC(=O)NC1=O` (centres unmarked) [Secobarbital], in the series on vacuolated PC/RS neurons (Rattus norvegicus, Neuron, sc), the 50% effective dose (ED50) stood at 15.3 mg/kg. Take `OC(CN1CCC(Cc2ccc(F)cc2)CC1)c1ccc(Cl)cc1` (centres unmarked) [Eliprodil]: the “neurotoxic (vacuole) reaction” value in series [3] (female, Sprague Dawley, 4 h) was “neither SKF (+)10,047 by itself, nor eliprodil by itself, caused a vacuole reaction”. In addition, in series [3], the “neurotoxic reaction in the PC/RS cortex at the highest dose tested” value was “did not cause a neurotoxic reaction” and the “neurotoxic (vacuole) reaction” value was “did not cause this neurotoxic reaction”. The “nearly a lethal dose (highest dose tested)” value in series [1] (rats) is given as 100 mg/kg/ip. Besides, the “binding at sigma receptors” value with sigma receptors is on record as “strong binding activity at sigma receptors”. Further, in the series on NMDA receptors, the “NMDA antagonist properties in the chick retina assay” value was “definite NMDA antagonist properties” and the “POTENCY RATING = minimum concentration required to provide total protection against neurotoxic effects of NMDA” value worked out at 30 µM.

Consider `CCNC1(c2cccs2)CCCCC1=O` (centres unmarked) [Tiletamine], for which the “pathological changes in cerebral cortex / corticolimbic regions of adult rats” value in the series on cerebrocortical neurons is “cause pathological changes in the cerebral cortex of adult rats”. Moreover, in the series on NMDA receptors (setting [4]), the “POTENCY RATING = minimum concentration required to provide total protection against neurotoxic effects of NMDA” value is 5 µM. In the case of `CN1CCN(C2=Nc3cc(Cl)ccc3Nc3ccccc32)CC1` [Clozapine], the ED50 in the series with vacuolated PC/RS neurons (Rattus norvegicus, Neuron, sc) came to 2.8 mg/kg. As to `CN1CCN(C2=Nc3cc(F)ccc3Cc3ccccc32)CC1` [Fluperlapine], the 50% effect level in the series with vacuolated PC/RS neurons (Rattus norvegicus, Neuron, sc) (ED50) was put at a dose of 2.4 mg/kg. This ED50 and that of the compound before are within 1.5-fold of each other. Same read-out and setting: then `CSc1ccc2c(c1)N(CCC1CCCCN1C)c1ccccc1S2` (centres unmarked) [Thioridazine], with 55.3 mg/kg. As to `COc1cc(CC(C)N)c(OC)cc1I` (centres unmarked) [DOI], the 50% effective dose (ED50) in the series with vacuolated PC/RS neurons (setting [5]) is reported as 1.05 mg/kg, ip.
